Test results published in US11666555B2, “RelA inhibitors for biofilm disruption” (DREXEL UNIVERSITY, priority 2017, dated 2023).

How the values were obtained:
Type in all cases: cell-based, Escherichia coli
E. coli C = test: Bacterial growth curves in liquid culture (OD630); settings: for effect on bacterial growth (growth curves): liquid culture, 30, 20, 10 and 5 μg/mL, OD630, 18 h, FIG. 2
Procedure: The bacterial strain of Escherichia coli strain C was used as the model organism for initial screening. A Luria-Bertani (LB-Miller) medium was used as the full medium. Once the biofilms were grown, compounds S3-[…] and S3-G1B were tested for their ability to degrade and inhibit biofilm growth. […] This is likely due to the fact that the stringent response and RelA are not active when the cells are initially grown. Bacterial Growth-The effect of different compounds on bacterial growth was tested by adding compounds at specific concentrations to the bacterial culture (100× diluted overnight culture approx. 10^9 cells) in fresh LB medium. Two hundred microliters were aliquoted into a 96 well plate and placed into Biotek HT plate reader for 18 h at 37° C. Plates were shaken and the optical density (OD630) was measured every 15 min. Antibiotic Susceptibility Test-The antibiotic susceptibility was tested. For the liquid cultures, the minimum inhibitory concentrations (MICs) of the antimicrobial drugs were determined using 96 well plates and the broth dilution method. Suspensions were then incubated at 37° C. for 18 hours in the Biotek HT plate reader (see bacterial growth). For biofilm, the Biofilm Destruction Test discussed below was used with different antibiotic concentrations and the cell density was measured after 18 h. Bacterial concentration was calculated through optical density (OD630), and the lowest concentration causing 80% growth inhibition relative to the growth of the control was deemed to be the MIC. In order to test the effect of compounds on bacterial growth, liquid culture experiments were performed. The S3-[…] compound (hereinafter “compound A”) and S3-G1B compound (hereinafter “compound B”) were applied to the bacterial cultures at the concentrations of 30, 20, 10 and 5 μg/mL. The differences in bacterial growth curves in liquid cultures fortified with the test compounds were measured. The Escherichia coli strain C is sensitive to all types of antibiotics. To test the MIC of ampicillin, a standard growth curve experiment was run with different concentrations of antibiotics. […] Inoculum at 1000× dilution of overnight culture.

E. coli C biofilm = test: Biofilm Destruction Test (biofilm persistence, crystal violet); settings: for effect on biofilm persistence / survival: two days biofilms, FIG. 6; for increase in biofilm persistence: 2 days old biofilm, 18 h, FIG. 7
Procedure: Biofilm Destruction Test—The biofilm destruction was determined. Biofilms were grown for 24 or 48 h as described above. After that time planktonic cells were removed, and biofilms were washed twice with 250 μL of sterile phosphate buffered saline (PBS) solution. Two hundred microliters of fresh LB medium with specific concentration of the tested compounds were dispensed into wells. After 18 h incubation at 37° C., the amount of biofilm was measured by CV staining as described above.
The effect of small molecules on biofilm persistence was tested. Two days biofilms were treated with compounds A and B as well as IDR-1018 and serine hydroxamate.
As described above, antibiotics affect bacterial cell survival in biofilms. Thus, the effect of antibiotic on biofilm persistence was tested. Ampicillin was applied on 2 days old biofilm and the amount of biofilm was analyzed after 18 h.

[1] = test system: E. coli C biofilm formation; test: Biofilm Inhibition Test (crystal violet, OD570/OD600); settings: for effect on biofilm formation (crystal violet): 20 μg/mL
Procedure: Biofilm Inhibition Test—The biofilm inhibition was analyzed. For biofilm formation on a polystyrene surface, flat-bottom 96-well microtiter plates (Corning Inc.) were used. The effect of different compounds on biofilm formation was tested by adding compounds at specific concentrations to the bacterial culture (100× diluted overnight culture approx. 10^9 cells) in fresh LB medium. Two hundred microliters were aliquoted into 96 well plate and placed for 24 or 48 h into 37° C. incubator. Cell density was measured (OD600) using a Multiscan Go plate reader (ThermoFisher), and 30 μL of Gram crystal violet (Remel-3 g CV, 50 mL isopropanol, 50 mL ethanol and 900 mL of purified water) was applied for staining for 1 h. Plates were washed with water and air dried, and crystal violet was solubilized with an ethanol-acetone (4:1) solution. The OD570 was determined from this solution, and the biofilm amount was calculated as the ratio of OD570 to OD600. In order to check the effect of small molecules on biofilm formation, a biofilm inhibition experiment was designed. Compounds A and B were tested at concentration 20 μg/mL. The Innate defense regulator peptide-1018 (IDR-1018) (10 μg/mL) and serine hydroxamate (1 μg/mL) were also included.

E. Coli biofilms = test: Synergistic effect of compounds combined with ampicillin on biofilm; settings: in conjunction with ampicillin, FIG. 8
Procedure: The synergistic effect of compounds combined with antibiotics was tested. Biofilms were grown for 24, 48 or 72 h as described above. After that time planktonic cells were removed, and biofilms were washed twice with 250 μL of sterile phosphate buffered saline (PBS) solution. Two hundred microliters of fresh LB medium with specific concentration of the tested compounds and Ampicillin were dispensed into wells. After 18 h incubation at 37° C., the amount of biofilm was measured by CV staining as described above. For alamarBlue viability test, 4 μL of alamarBlue (Invitrogen) was added and plates were incubated in the Biotek HT plate reader at 37° C. for 4 h. Cell viability was measured as fluorescence at 530/590 nm (excitation/emission) versus compound concentration or initial cell density.
FIG. 8 highlights some of the data collected. […] As a positive control in these experiments IDR-1018 was utilized. IDR-1018 is a non-druggable antibiofilm peptide. IDR 1018 is a known biofilm disruptor that directly acts and degrades (p)ppGpp in cells (de la Fuente-Núñez 2014).

[2] = test system: E. coli C cells in biofilm; test: Antibiotic susceptibility of cells in biofilm (cell density after 18 h treatment); settings: 18 h treatment of 2-day biofilm
Procedure: Antibiotic Susceptibility Test—The antibiotic susceptibility was tested. For the liquid cultures, the minimum inhibitory concentrations (MICs) of the antimicrobial drugs were determined using 96 well plates and the broth dilution method. Suspensions were then incubated at 37° C. for 18 hours in the Biotek HT plate reader (see bacterial growth). For biofilm, the Biofilm Destruction Test discussed below was used with different antibiotic concentrations and the cell density was measured after 18 h. Bacterial concentration was calculated through optical density (OD630), and the lowest concentration causing 80% growth inhibition relative to the growth of the control was deemed to be the MIC. Biofilm Destruction Test—The biofilm destruction was determined. Biofilms were grown for 24 or 48 h as described above. After that time planktonic cells were removed, and biofilms were washed twice with 250 μL of sterile phosphate buffered saline (PBS) solution. Two hundred microliters of fresh LB medium with specific concentration of the tested compounds were dispensed into wells. After 18 h incubation at 37° C., the amount of biofilm was measured by CV staining as described above. As cells in the biofilm tend to be more resistant to antibiotics, similar ampicillin concentration was tested to check the effect of 18 h antibiotic treatment on 2-day biofilm growth. […] At 40 μg/mL, a decrease in cell growth was observed of 15%. Starting from 50 μg/mL the cell density was reduced from 53% to 5% (at 90 μg/mL) of the untreated control.

Row | Compound | effect on bacterial growth (growth curves) (E. coli C) | effect on biofilm persistence / survival (E. coli C biofilm) | effect on the initial growth of biofilms [1] | effect on biofilm formation (crystal violet) ([1]; FIG. 5B) | biofilm concentration compared to biofilms treated with just antibiotics (E. Coli biofilms) | biofilm degradation compared with positive control IDR-1018 (E. Coli biofilms) | other results
1 | CCCNc1ncc(-c2cc(-c3cc(C(=O)O)[nH]n3)nc(N)c2C#N)cn1 [Compound S3-G1B] | Neither compound showed any effect | no significant effect | did not show any effect | slight increase | decreasing the biofilm concentration significantly | outperform IDR-1018 | effect on bacterial growth (growth curves) (E. coli C; listed as B): no effect
2 | O=C(N[C@H](C(=O)O)c1ccc(Cl)cc1)c1cc(-c2ccc(O)cc2)n[nH]1 [Compound S3-G1A, (4-chlorophenyl)([(3-(4-hydroxyphenyl)-1H-pyrazol-5-yl]carbonyl)amino)acetic acid] | Neither compound showed any effect | no significant effect | did not show any effect | slight increase | decreasing the biofilm concentration significantly | outperform IDR-1018 | effect on bacterial growth (growth curves) (E. coli C; listed as A): no effect
3 | IDR-1018 [reference compound] | – | smaller effect on biofilm destruction than on biofilm inhibition | – | – | – | – | planktonic growth lower than the untreated control ([1]; 10 μg/mL, FIG. 5A): 63%; biofilm lower than the untreated control ([1]; 10 μg/mL, FIG. 5B): 45%
4 | NC(CO)C(=O)NO (stereo not drawn) [Serine hydroxamate, serine hydroxamate, reference compound] | – | – | – | – | – | – | effect in biofilm inhibition experiment ([1]; 1 μg/mL, 24 h experiment): did not show any effect
5 | CC1(C)S[C@@H]2[C@H](NC(=O)[C@H](N)c3ccccc3)C(=O)N2[C@H]1C(=O)O [ampicillin] | – | – | – | – | – | – | decrease in cell growth ([2]; 40 μg/mL): 15%; cell density, % of the untreated control ([2]; 50 μg/mL): 53%; cell density, % of the untreated control ([2]; 90 μg/mL): 5%; effect on planktonic growth curve (E. coli C; low ampicillin concentrations, FIG. 3): bacteriostatic effect with a prolonged lag phase; increase in biofilm persistence (E. coli C biofilm; Amp 10 (10 μg/mL)): 1.7 fold; increase in biofilm persistence (E. coli C biofilm; Amp 70 (70 μg/mL)): 5.9 fold
